Test system: Mythimna separata
Assay: Efficacy test against Mythimna separata (artificial feed mixed with emulsion)
Details: in vivo
Description: Five parts of the (hetero)aryl sulfonamide compound of the present invention, 93.6 parts of dimethylformamide and 1.4 parts of a polyoxyethylene alkyl aryl ether were mixed together and dissolved to obtain an emulsion (I) containing 5% of the active ingredient.
For the control, 93.6 parts of dimethylformamide and 1.4 parts of a polyoxyethylene alkyl aryl ether were mixed together and dissolved to obtain an emulsion (II).
Insect mortality rate(%)=(number of dead insects/number of test insects)×100 Nematode mortality rate(%)=(number of dead nematodes/number of test nematodes)×100
First, 0.8 g of a commercially-available artificial feed (Insecta LFS, manufactured by Nosan Corporation) and 1 μl of the emulsion (I) were mixed well, and thereby, a test feed was obtained. Subsequently, 0.2 g of the test feed was placed in each of the treatment areas of a plastic test container (volume: 1.4 ml). Subsequently, two second-instar larvae of Mythimna separata were inoculated into each treatment area, and a plastic lid was placed on the test container to prevent the larvae from escaping. The closed container was placed in a thermostatic chamber at 25° C. On the 5th day therefrom, the insect mortality rate and the amount of feed consumed were checked. The test was repeated.
In addition, for a control area, the insect mortality rate and the amount of feed consumed were checked in the same manner as that described in Test Example 1, with the exception of replacing the emulsion (I) with the emulsion (II).

Structure (SMILES)	insect mortality rate against Mythimna separata [%]
O=S(=O)(Nc1cc(C(F)(F)F)ccc1-c1nc2cc(Cl)c(Cl)cc2[nH]1)C(F)(F)F [Compound 2-3]	100
O=S(=O)(N(c1cc(C(F)(F)F)ccc1-c1nc2cc(C(F)(F)F)ccc2[nH]1)S(=O)(=O)C(F)(F)F)C(F)(F)F [Compound 2-5]	100
O=S(=O)(Nc1cc(C(F)(F)F)ccc1-c1nc2cc(C(F)(F)F)ccc2[nH]1)C(F)(F)F [Compound 2-6]	100
O=S(=O)(Nc1cc(C(F)(F)F)ccc1-c1nc2cc(F)c(F)cc2[nH]1)C(F)(F)F [Compound 2-8]	100
O=S(=O)(Nc1cc(F)c(F)cc1-c1nc2cc(F)c(F)cc2[nH]1)C(F)(F)F [Compound 2-9]	100
CCS(=O)(=O)Nc1cc(C(F)(F)F)ccc1-c1nc2cc(F)c(F)cc2[nH]1 [Compound 2-14]	100
O=S(=O)(Nc1cc(C(F)(F)F)ccc1-n1cnc(-c2ccc(Br)cc2)n1)C(F)(F)F [Compound 2-15]	100
O=S(=O)(Nc1cc(C(F)(F)F)ccc1-n1cc(-c2ccc(Cl)cc2)cn1)C(F)(F)F [Compound 2-16]	100
CCS(=O)(=O)Nc1cc(C(F)(F)F)ccc1-n1cnc(-c2ccc(Br)cc2)n1 [Compound 2-17]	100
O=S(=O)(Nc1cc(C(F)(F)F)ccc1-n1ccc(-c2ccc(Cl)cc2)n1)C(F)(F)F [Compound 2-18]	100
O=S(=O)(Nc1cc(C(F)(F)F)ccc1-n1ccc(-c2ccc(C(F)(F)F)cc2)n1)C(F)(F)F [Compound 2-22]	100
O=S(=O)(Nc1cc(C(F)(F)F)ccc1-c1nc(-c2ccc(Cl)cc2)no1)C(F)(F)F [Compound 2-25]	100
O=S(=O)(Nc1cc(C(F)(F)F)ccc1-c1ccc(C(F)(F)F)cn1)C(F)(F)F [Compound 2-36]	100
O=S(=O)(CC(F)(F)F)Nc1cc(C(F)(F)F)cnc1-n1ccc(C(F)(F)F)n1 [Compound 3-8]	100
Cc1c(Br)c(C(F)(F)F)nn1-c1ncc(C(F)(F)F)cc1NS(=O)(=O)C(F)(F)F [Compound 3-46]	100
O=S(=O)(Nc1cc(C(F)(F)F)cnc1-c1cccc(C(F)(F)F)n1)C(F)(F)F [Compound 3-47]	100
